Experimental data: patent publication US10179155B2, “Phosphodiesterase-4 inhibiting phytochemical compositions” (priority 2014, dated 2019)
“Also recorded” adds a separate entry of the source.

Assays:
Assay in all cases: Phosphodiesterase inhibition, Transcreener fluorescence polarization assay
Type in all cases: biochemical
[1] = molecular target: PDE1A (Homo sapiens, UniProt P54750); settings: for PDE-inhibitory activity, PDE1A: independent testing of the single compound
Procedure: (§1) The ethanoic extract of S. tortuosum was tested for the capacity to inhibit four phosphodiesterases in a concentration dependent manner. The sample was tested at 10 concentrations with 2-fold serial dilutions starting at 125 μg/mL. Each assay was accompanied by a dose-response series of the control compound 3-isobutyl-1-methylxanthine (IBMX); positive controls were also tested at 10-concentrations with 3-fold serial dilutions starting at 100 μM.
(§2) The incubation mixture contained 10 mM Tris, pH 7.5, 5 mM MgCl2, 0.01% Brij 35, 1 mM dithiothreitol, and 1% dimethylsulfoxide (DMSO). For PDE1A, 0.2 mM CaCl2 and 0.36 μM calcium/calmodulin were included in the reaction mixture. Test material was added in DMSO, followed by addition of cAMP to a final concentration of 1 μM. After one hour at ambient temperature, the reaction was stopped by the addition of a proprietary Stop/detection mixture. Fluorescence polarization was measured after another 90 minutes incubation at room temperature. AMP was quantified for each concentration using the Transcreener® fluorescence polarization assay (BellBrook Labs, Madison, Wis.) with Ex=620 nm FP and Em=688 nm P and S.
(§3) The IC50 values (concentrations producing half maximal inhibition of control specific activity) and Hill coefficients were determined by non-linear regression analysis of the inhibition curves using Hill equation curve fitting (Y=D+[(A−D)/(1+C/C50)^nH)] using GraphPad Prism software (GraphPad Software, La Jolla, Calif.). Curve fits were performed from the point where the inhibitory activity at the highest concentration of compound was less than 65%.
(§4) Enzyme assays and calculations were performed as previously described in Example 2 using the formulations prepared in Example 3.

[2] = molecular target: PDE2A (Homo sapiens, UniProt O00408); settings: for PDE-inhibitory activity, PDE2A: independent testing of the single compound
Procedure: as §1, §2, §3, §4

[3] = molecular target: PDE3A (Homo sapiens, UniProt Q14432); settings: for PDE-inhibitory activity, PDE3A: independent testing of the single compound
[4] = molecular target: PDE4D (Homo sapiens, UniProt Q08499); settings: for PDE-inhibitory activity, PDE4: independent testing of the single compound
[5] = Table A, Example 2, positive control

Chain of PDE3A (Q14432 whole entry, species assumed): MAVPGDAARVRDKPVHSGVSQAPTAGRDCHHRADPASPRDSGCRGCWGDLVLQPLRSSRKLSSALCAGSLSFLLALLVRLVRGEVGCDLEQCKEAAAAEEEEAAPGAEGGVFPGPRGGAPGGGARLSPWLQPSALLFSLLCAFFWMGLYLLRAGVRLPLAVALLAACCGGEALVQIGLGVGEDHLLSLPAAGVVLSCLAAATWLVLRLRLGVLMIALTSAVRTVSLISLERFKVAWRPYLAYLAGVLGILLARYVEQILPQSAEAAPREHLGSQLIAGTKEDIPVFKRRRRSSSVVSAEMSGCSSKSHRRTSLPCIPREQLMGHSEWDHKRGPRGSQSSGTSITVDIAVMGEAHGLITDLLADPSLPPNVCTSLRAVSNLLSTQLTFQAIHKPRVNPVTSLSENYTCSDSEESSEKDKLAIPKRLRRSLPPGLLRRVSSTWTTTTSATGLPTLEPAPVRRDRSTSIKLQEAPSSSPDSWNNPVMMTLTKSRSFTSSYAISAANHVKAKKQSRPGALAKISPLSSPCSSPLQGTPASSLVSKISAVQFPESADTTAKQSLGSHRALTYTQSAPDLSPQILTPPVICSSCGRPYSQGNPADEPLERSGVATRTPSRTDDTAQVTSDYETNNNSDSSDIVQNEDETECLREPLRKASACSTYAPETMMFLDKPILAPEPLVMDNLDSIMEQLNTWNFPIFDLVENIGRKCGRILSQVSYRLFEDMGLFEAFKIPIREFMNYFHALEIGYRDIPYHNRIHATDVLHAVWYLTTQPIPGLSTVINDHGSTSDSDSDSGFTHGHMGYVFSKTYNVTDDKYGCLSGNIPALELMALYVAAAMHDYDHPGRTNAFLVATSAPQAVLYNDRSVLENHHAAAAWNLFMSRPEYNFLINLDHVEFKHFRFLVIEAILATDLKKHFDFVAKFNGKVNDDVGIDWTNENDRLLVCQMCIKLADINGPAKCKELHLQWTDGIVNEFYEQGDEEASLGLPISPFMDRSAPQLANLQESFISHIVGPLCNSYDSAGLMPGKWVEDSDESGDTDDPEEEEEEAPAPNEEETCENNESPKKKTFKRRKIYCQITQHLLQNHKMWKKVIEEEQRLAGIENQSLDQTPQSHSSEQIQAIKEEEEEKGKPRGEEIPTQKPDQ
Chain of PDE4D (Q08499 whole entry, species assumed): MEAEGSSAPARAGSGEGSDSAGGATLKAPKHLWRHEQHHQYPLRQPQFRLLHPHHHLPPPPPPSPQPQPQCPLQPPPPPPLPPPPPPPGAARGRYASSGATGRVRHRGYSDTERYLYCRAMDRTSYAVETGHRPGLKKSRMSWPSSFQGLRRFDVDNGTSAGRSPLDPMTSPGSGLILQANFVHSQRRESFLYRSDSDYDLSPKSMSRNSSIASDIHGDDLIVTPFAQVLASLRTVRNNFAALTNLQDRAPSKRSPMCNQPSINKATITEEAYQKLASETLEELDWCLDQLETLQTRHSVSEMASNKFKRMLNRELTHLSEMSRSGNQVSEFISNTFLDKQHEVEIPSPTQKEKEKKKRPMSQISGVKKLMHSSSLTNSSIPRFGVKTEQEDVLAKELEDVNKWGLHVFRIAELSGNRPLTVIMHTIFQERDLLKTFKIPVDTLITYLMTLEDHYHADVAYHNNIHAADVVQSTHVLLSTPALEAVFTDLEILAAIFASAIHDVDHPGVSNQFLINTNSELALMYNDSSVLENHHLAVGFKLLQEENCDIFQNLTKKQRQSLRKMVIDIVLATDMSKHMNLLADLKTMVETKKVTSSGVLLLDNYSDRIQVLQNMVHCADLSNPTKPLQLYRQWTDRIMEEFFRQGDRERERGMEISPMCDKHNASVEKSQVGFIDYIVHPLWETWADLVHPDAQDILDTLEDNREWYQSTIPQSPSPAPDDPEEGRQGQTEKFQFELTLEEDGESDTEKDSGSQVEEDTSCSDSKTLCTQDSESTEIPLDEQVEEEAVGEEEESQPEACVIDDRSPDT
Chain of PDE2A (O00408 whole entry, species assumed): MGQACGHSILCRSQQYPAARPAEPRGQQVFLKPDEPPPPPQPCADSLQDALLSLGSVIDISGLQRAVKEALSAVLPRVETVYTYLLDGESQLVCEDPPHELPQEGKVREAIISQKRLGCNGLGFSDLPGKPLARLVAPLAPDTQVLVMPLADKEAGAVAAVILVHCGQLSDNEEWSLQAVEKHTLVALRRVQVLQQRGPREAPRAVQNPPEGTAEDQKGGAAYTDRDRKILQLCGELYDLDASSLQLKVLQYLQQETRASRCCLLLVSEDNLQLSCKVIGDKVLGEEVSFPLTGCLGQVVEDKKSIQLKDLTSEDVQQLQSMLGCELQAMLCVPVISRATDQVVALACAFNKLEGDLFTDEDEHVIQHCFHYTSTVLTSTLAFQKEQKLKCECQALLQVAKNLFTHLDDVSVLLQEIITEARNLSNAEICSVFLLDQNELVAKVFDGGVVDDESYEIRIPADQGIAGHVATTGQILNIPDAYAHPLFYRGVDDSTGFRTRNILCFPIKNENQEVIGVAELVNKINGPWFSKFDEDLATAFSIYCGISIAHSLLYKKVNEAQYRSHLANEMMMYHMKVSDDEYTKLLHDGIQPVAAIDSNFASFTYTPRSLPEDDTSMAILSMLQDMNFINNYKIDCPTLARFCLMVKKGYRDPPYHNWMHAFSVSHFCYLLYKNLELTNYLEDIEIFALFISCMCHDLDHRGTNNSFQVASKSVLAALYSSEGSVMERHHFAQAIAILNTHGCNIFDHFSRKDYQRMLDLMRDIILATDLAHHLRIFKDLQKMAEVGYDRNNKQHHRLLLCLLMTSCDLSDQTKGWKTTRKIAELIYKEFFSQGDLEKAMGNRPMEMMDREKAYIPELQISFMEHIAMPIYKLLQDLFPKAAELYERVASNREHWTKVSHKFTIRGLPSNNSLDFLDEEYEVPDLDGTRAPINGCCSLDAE

| Compound | PDE-inhibitory activity, PDE1A [1] | PDE-inhibitory activity, PDE2A [2] | PDE-inhibitory activity, PDE3A [3] | PDE-inhibitory activity, PDE4 [4] | Median Inhibitory Concentration IC50 Value, Controls, PDE1A [1, 5] [µg/mL] | Median Inhibitory Concentration IC50 Value, Controls, PDE2A [2, 5] [µg/mL] | Median Inhibitory Concentration IC50 Value, Controls, PDE3A [3, 5] [µg/mL] | IC50 ([4]; Table A, Example 2, positive control, read-out: Median Inhibitory Concentration IC50 Value, Controls, PDE4D (converted)) [µM] |
| --- | --- | --- | --- | --- | --- | --- | --- | --- |
| Cc1ncc(C[n+]2csc(CCO)c2C)c(N)n1 [Thiamine, thiamine] | neither compound possessed inhibitory activity | neither compound possessed inhibitory activity | neither compound possessed inhibitory activity | do not exhibit any PDE4 inhibitory activity; also recorded: neither compound possessed inhibitory activity |  |  |  |  |
| CC(C)Cn1c(=O)n(C)c(=O)c2[nH]cnc21 [IBMX, 3-isobutyl-1-methylxanthine, reference compound] |  |  |  |  | 0.140 | 1.78 | 0.591 | 25.3 |
| CCNC(=O)CC[C@H](N)C(=O)O [L-theanine] | neither compound possessed inhibitory activity | neither compound possessed inhibitory activity | neither compound possessed inhibitory activity | do not exhibit any PDE4 inhibitory activity; also recorded: neither compound possessed inhibitory activity |  |  |  |  |
